According to US20240059658A1 (Emory University, priority 2019, published 2024):

Experiments:
EU-1 = assay: WST cytotoxicity assay, cancer cell EU-1; assay type: cell-based, human; conditions: Homo sapiens, EU-1, EU-1; no other cell line named in the cell; read-out: Cancer cell (EU-1) cytotoxicity IC50
How it was run: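 Pediatric ALL and NB lines grown in RPMI 1640 with 10% FBS at 37 °C, 5% CO2. Cells were exposed to a range of compound concentrations for 20 h, then WST (25 μg/well) was added for a further 4 h. OD read at 450 nm against a 620 nm reference.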

MDM2 = target: T1, MDM2 (Homo sapiens, UniProt Q00987); assay: MDM2 reduction / expression (Western blot); assay type: cell-based; conditions: words or +/− grades, key not given
T1 construct: ubiquitination of endogenous MDM2 in EU-1 cells; endogenous in cells; host or cells: EU-1 (ALL) cells
T1 sequence (Q00987 whole entry): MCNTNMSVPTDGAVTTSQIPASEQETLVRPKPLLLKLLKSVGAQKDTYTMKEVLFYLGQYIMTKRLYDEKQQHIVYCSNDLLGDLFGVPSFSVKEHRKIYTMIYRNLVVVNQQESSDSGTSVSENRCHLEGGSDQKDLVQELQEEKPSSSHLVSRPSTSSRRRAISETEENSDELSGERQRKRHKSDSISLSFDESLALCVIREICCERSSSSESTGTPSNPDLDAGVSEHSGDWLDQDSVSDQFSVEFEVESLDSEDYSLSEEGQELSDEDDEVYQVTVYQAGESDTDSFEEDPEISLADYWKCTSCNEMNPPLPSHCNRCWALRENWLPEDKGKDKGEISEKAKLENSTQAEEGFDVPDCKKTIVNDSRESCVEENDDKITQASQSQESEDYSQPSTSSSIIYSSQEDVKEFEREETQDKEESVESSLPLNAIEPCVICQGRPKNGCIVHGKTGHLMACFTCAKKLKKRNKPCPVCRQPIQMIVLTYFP
Protocol: (§1) Cells were lysed in a buffer composed of 50 mM Tris, pH 7.6, 150 mM NaCl, 1% Nonidet P-40, 10 mM sodium phosphate, 10 mM NaF, 1 mM sodium orthovanadate, 2 mM phenylmethylsulfonyl fluoride (PMSF), […], 10 μg/mL leupeptin and 10 μg/mL pepstatin. After centrifugation, the clarified cell lysate was separated from the pellet of cell debris, and then incubated with 15 μL Protein G/Protein A-agarose and 1 μg of antibodies, overnight at 4° C. For the Western blot, the resulting cell lysates or immunoprecipitates were resolved by SDS-PAGE. They were then transferred to a nitrocellulose filter and probed with the specific antibodies as listed in the supplemental Materials section. Finally, proteins were visualized with a chemiluminescent detection system.

p53 = p53 induction / expression (Western blot); assay type: cell-based; conditions: words or +/− grades, key not given
Protocol: as §1

XIAP = XIAP inhibition / expression (Western blot); assay type: cell-based; conditions: MDM2 reduction
Protocol: as §1

in vivo = conditions: mouse
855 line = assay: WST cytotoxicity assay, 855 line; assay type: cell-based; conditions: read-out: Cancer cell cytotoxicity IC50
Protocol: (§2) The cytotoxic effect of MX 69 and MX69 analogs on cancer cells was determined using the water-soluble tetrazolium salt (WST) assay. Briefly, cells cultured in 96-well microtiter plates were treated with different concentrations of AQ-101 for a 20-h period. WST (25 μg/well) was then added and incubation continued for an additional 4 h, after which optical density (OD) was read with a microplate reader (test wavelength of 450 nm; reference wavelength of 620 nm).

NB-1643 = assay: WST cytotoxicity assay, NB-1643; assay type: cell-based; conditions: Homo sapiens; NB-1643 line; read-out: Cancer cell cytotoxicity IC50
Protocol: This study used two ALL cell lines (EU-1 and EU-3) and three NB cell lines (NB-1643, SHEP1 and LA1-55N). All 5 cancer cell lines were established from pediatric ALL or NB patients and were well-characterized for their expression of MDM2 and p53-status, as reported previously. All cell lines were grown in standard culture medium (RPMI 1640 containing 10% FBS, 2 mmol/L L-glutamine, 50 U penicillin and 50 μg/mL streptomycin) at 37° C. in a humidified atmosphere containing 5% CO2.
as §2

MDM2 RING protein = MDM2 RING protein (Homo sapiens, UniProt Q00987); assay: Compound-protein binding (ITC) to MDM2 RING protein; conditions: MDM2 RING domain
Sequence of MDM2 RING protein (Q00987 438-479 limits assumed): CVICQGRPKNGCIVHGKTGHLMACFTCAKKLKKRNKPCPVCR
Protocol: Isothermal titration calorimetry (ITC) assay was performed using the auto-iTC200 instrument (MicroCal, GE). MDM2 protein was loaded into a 96 DeepWell PP plate, and then compound was titrated stepwise into the protein sample cell using a syringe, for a total of 16 injections (except for the first injection, which was 0.4 μl). The equilibrium time between two adjacent injections was 210 s. The binding stoichiometry (n), binding constant (Kd), and thermodynamic parameters (ΔH and ΔS) were determined by fitting the titration curve to a one-site binding mode, using the Origin software provided by the manufacturer.

697 cell line = assay: WST cytotoxicity assay, 697 cell line; assay type: cell-based; conditions: read-out: Cancer cell cytotoxicity IC50
Protocol: as §2

[1] = system: human normal bone marrow mononuclear (NBMM) cells; assay: Clonogenic assay for CFU-GM and BFU-E (normal hematopoiesis); assay type: cell-based; conditions: 1 μM, 14 days
Protocol: For colony formation of normal human hematopoiesis assay, a bottom layer of low-melting-point, 0.5% agarose (in RPMI 1640 medium plus 10% FBS) was poured into gridded 35 mm dishes and allowed to gel. Cells were cultured in a top layer of 0.35% agarose/medium at 37° C. in a humidified atmosphere containing 5% CO2. After 2-3 weeks, cultures were fixed with formalin and colonies scored.

Row | MDM2 reduction (MDM2) | SMILES | IC50 (EU-1) [nM] | p53 induction (p53) | IC50 (855 line) [nM] | IC50 (NB-1643) [nM] | also measured
1 | inhibition | Cc1ccc(NS(=O)(=O)c2ccc3c(c2)C(=O)C[C@@H](c2ccc(C(=O)C(C)C)cc2)N3)cc1C (stereo in doubt) [Compound 69L84, N-(3,4-dimethylphenyl)-2-(4-isobutyrylphenyl)-4-oxo-1,2,3,4-tetrahydroquinoline-6-sulfonamide] | 200 to 600 | activation |  |  | XIAP inhibition (XIAP): inhibition
2 | inhibition | Cc1ccc(NS(=O)(=O)c2ccc3c(c2)C2OCC[C@H]2C(c2ccc(C(O)C(C)C)cc2)N3)cc1C (stereo in doubt) [Compound 69L87, N-(3,4-dimethylphenyl)-4(4-(1-hydroxy-2-methylpropyl)phenyl)-2,3,3a,4,5,9b-hexahydrofuro[3,2-c]quinoline-8-sulfonamide] | 1980 | inhibition |  |  | 
3 | inhibition | CC(=O)c1cccc(C2Nc3ccc(S(=O)(=O)Nc4ccc(C)c(C)c4)cc3C3OCC[C@@H]23)c1 (stereo in doubt) [Compound 69L93, 4-(3-acetylphenyl)-N-(3,4-dimethylphenyl)-2,3,3a,4,5,9b-hexahydrofuro[3,2-c]quinoline-8-sulfonamide] | 1950 | induction |  |  | 
4 | inhibition | CC(=O)c1cccc(NS(=O)(=O)c2ccc3c(c2)[C@H]2OCC[C@H]2C(c2ccc(C(=O)C(C)C)cc2)N3)c1 (stereo in doubt) [Compound 69L102, N-(3-acetylphenyl)-4-(4-isobutyrylphenyl)-2,3,3a,4,5,9b-hexahydrofuro[3,2-c]quinoline-8-sulfonamide] | 230 |  |  |  | XIAP inhibition (XIAP): inhibition
5 | inhibition | Cc1ccc(NS(=O)(=O)c2ccc3c(c2)[C@H]2NCC[C@H]2[C@@H](c2ccc(C(=O)C(C)C)cc2)N3)cc1C [Compound 69L81] | 3200 | inhibition |  |  | XIAP inhibition (XIAP): inhibition
6 | inhibition | CC(=O)c1ccc(C2CC(=O)c3cc(S(=O)(=O)Nc4ccc(C)c(C)c4)ccc3N2)cc1 (stereo not shown) [Compound 69L83, 2-(4-acetylphenyl)-N-(3,4-dimethylphenyl)-4-oxo-1,2,3,4-tetrahydroquinoline-6-sulfonamide] | 1170 | inhibition |  |  | 
7 | inhibition | CC(=O)c1ccc(NS(=O)(=O)c2ccc3c(c2)[C@H]2OCC[C@H]2C(c2ccc(C(=O)C(C)C)cc2)N3)cc1 (stereo partly shown) [Compound 69L98, N-(4-acetylphenyl)-4-(4-isobutyrylphenyl)-2,3,3a,4,5,9b-hexahydrofuro[3,2-c]quinoline-8-sulfonamide] | 1500 | induction |  |  | 
8 | inhibition | CC(=O)c1cccc(NS(=O)(=O)c2ccc3c(c2)C(=O)CC(c2ccc(C(=O)C(C)C)cc2)N3)c1 (stereo not shown) [Compound 69L113, N-(3-acetylphenyl)-2-(4-isobutyrylphenyl)-4-oxo-1,2,3,4-tetrahydro-quinoline-6-sulfonamide] | < 100 |  |  |  | XIAP inhibition (XIAP): inhibition
9 | inhibition | Cc1ccc(NS(=O)(=O)c2ccc3c(c2)C(=O)CC(c2cccc(C(=O)C(C)C)c2)N3)cc1C (stereo not shown) [Compound 69L114, N-(3,4-dimethylphenyl)-2-(3-isobutyrylphenyl)-4-oxo-1,2,3,4-tetrahydroquinoline-6-sulfonamide] | < 100 |  |  |  | XIAP inhibition (XIAP): inhibition
10 | inhibition | CC(=O)c1cccc(NS(=O)(=O)c2ccc3c(c2)C(=O)CC(c2cccc(C(C)=O)c2)N3)c1 (stereo not shown) [Compound 69L121, N,2-bis(3-acetylphenyl)-4-oxo-1,2,3,4-tetrahydroquinoline-6-sulfonamide] | 180 |  |  |  | 
11 | inhibition | CC(=O)c1cccc(C2CC(=O)c3cc(S(=O)(=O)Nc4ccc5c(c4)CCO5)ccc3N2)c1 (stereo not shown) [Compound 69L123, 2-(3-acetylphenyl)-N-(2,3-dihydrobenzofuran-5-yl)-4-oxo-1,2,3,4-tetrahydroquinoline-6-sulfonamide] | < 100 |  |  |  | 

Continued, compound first:

Row | SMILES | MDM2 reduction (MDM2) | IC50 (EU-1) [nM] | p53 induction (p53) | IC50 (855 line) [nM] | IC50 (NB-1643) [nM] | also measured
12 | COC(=O)c1ccc(C2Nc3ccc(S(=O)(=O)Nc4ccc(C)c(C)c4)cc3[C@H]3OCC[C@@H]23)cc1 (stereo partly shown) [Compound 69L1] |  | 1500 to 6000 |  |  |  | MTD (in vivo): 300 mg/kg
13 | CC(=O)c1ccc(C2Nc3ccc(S(=O)(=O)Nc4ccc(C)c(C)c4)cc3[C@H]3OCC[C@@H]23)cc1 (stereo partly shown) [Compound 69L38] | No MDM2 |  |  | 490 | 1820 | 
14 | COC(=O)c1ccc([C@H]2CC(O)c3cc(S(=O)(=O)Nc4ccc(C)c(C)c4)ccc3N2)cc1 (stereo partly shown) [Compound 69L39] | No MDM2 |  |  | 680 | 1610 | 
15 | Cc1ccc(NS(=O)(=O)c2ccc3c(c2)C2OCC[C@H]2[C@H](C2CCCCC2)N3)cc1C (stereo partly shown) [Compound 69L53, 4-cyclohexyl-N-(3,4-dimethylphenyl)-2,3,3a,4,5,9b-hexahydrofuran[3,2-c]quinolone-8-sulfonamine] | inhibition |  | induction | 800 | 1730 | MDM2 binding affinity as compared with MX69 (MDM2 RING protein): Increased MDM2 Binding Affinity; MTD (in vivo): 300 mg/kg
16 | Cc1ccc(NS(=O)(=O)c2ccc3c(c2)C2OCC[C@H]2[C@H](C2CCOCC2)N3)cc1C (stereo partly shown) [Compound 69L58, N-(3,4-dimethylphenyl)-4-(tetrahydro-2H-pyran-4-yl)-2,3,3a,4,5,9b-hexahydrofuran[3,2-c]quinolone-8-sulfonamine] | inhibition |  | induction | 1610 | 2630 | 
17 | O=S(=O)(Nc1ccc2c(c1)CCCC2)c1ccc2c(c1)C1OCC[C@H]1[C@H](C1CCCCC1)N2 (stereo partly shown) [Compound 69L59, 4-cyclohexyl-N-(5,6,7,8-tetrahydronaphthalen-2-yl)-2,3,3a,4,5,9b-hexahydrofuran[3,2-c]quinolone-8-sulfonamine] | No MDM2 |  |  | 2310 | 3090 | 
18 | O=S(=O)(Nc1ccc(Cl)c(Cl)c1)c1ccc2c(c1)C1OCC[C@H]1[C@H](C1CCCCC1)N2 (stereo partly shown) [Compound 69L60, 4-cyclohexyl-N-(3,4-dichlorophenyl)-2,3,3a,4,5,9b-hexahydrofuran[3,2-c]quinolone-8-sulfonamine] | Increase |  |  | 1810 | 5650 | IC50 (697 cell line): 2730 nM
19 | Cc1ccc(NS(=O)(=O)c2ccc3c(c2)C2OCC[C@H]2C2(CCCCC2)N3)cc1C (stereo partly shown) [Compound 69L62] | No MDM2 |  |  | 980 | 1300 | IC50 (697 cell line): 490 nM
20 | Cc1ccc(NS(=O)(=O)c2ccc3c(c2)C2OCC[C@H]2C(c2cccc4ccccc24)N3)cc1C (stereo partly shown) [Compound 69L63] |  |  | induction | 6070 |  | IC50 (697 cell line): 3940 nM
21 | Cc1ccc(NS(=O)(=O)c2ccc3c(c2)C2OCC[C@H]2[C@H](C2CCN(C(=O)OC(C)(C)C)CC2)N3)cc1C (stereo partly shown) [Compound 69L64] |  |  | induction | 1350 |  | IC50 (697 cell line): 280 nM
22 | COc1cccc2c1C(=O)c1c(O)c3c(c(O)c1C2=O)C[C@@](O)(C(=O)CO)C[C@@H]3O[C@H]1C[C@H](N)[C@H](O)[C@H](C)O1 [Dox, doxorubicin] |  |  |  |  |  | BFU-E colony numbers and size [1]: significantly reduced; CFU-GM colony numbers and size [1]: significantly reduced
